Data published in ChEMBL document CHEMBL1139861, “Novel series of potent, nonsteroidal, selective androgen receptor modulators based on 7H-[1,4]oxazino[3,2-g]quinolin-7-ones” (J Med Chem, 2007).

What was measured:
[1] = biological target: T1, Mineralocorticoid receptor (Homo sapiens, UniProt P08235)
T1 sequence (P08235 whole entry): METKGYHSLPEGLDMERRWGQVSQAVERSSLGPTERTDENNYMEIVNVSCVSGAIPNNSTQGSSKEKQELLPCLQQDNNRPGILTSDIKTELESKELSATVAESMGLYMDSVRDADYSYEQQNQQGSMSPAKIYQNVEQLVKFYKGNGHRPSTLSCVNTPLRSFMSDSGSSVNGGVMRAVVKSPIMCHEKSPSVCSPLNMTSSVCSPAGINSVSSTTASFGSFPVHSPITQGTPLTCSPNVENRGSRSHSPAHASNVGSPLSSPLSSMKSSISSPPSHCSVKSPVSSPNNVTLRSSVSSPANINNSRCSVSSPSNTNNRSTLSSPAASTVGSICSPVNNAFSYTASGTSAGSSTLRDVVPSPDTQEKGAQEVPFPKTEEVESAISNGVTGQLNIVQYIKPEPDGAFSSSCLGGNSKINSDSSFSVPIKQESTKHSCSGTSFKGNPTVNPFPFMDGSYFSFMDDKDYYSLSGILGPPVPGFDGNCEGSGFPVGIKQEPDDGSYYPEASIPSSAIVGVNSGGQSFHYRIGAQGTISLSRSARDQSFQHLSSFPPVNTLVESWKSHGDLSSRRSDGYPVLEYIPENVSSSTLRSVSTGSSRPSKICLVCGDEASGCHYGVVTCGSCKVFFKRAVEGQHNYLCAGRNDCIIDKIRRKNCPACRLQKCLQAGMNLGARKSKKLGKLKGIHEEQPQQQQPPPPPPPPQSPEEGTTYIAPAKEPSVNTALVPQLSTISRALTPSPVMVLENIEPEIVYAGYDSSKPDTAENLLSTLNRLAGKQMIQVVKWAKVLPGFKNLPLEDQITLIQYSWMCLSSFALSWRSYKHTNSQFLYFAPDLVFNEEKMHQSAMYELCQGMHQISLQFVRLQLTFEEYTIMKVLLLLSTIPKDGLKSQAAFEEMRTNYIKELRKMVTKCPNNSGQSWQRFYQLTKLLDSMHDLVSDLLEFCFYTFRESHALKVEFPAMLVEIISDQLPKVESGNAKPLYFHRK
Description: Displacement of radiolabeled aldosterone from human MR

Progesterone receptor = biological target: T2, Progesterone receptor (Homo sapiens, UniProt P06401)
T2 sequence (P06401 whole entry): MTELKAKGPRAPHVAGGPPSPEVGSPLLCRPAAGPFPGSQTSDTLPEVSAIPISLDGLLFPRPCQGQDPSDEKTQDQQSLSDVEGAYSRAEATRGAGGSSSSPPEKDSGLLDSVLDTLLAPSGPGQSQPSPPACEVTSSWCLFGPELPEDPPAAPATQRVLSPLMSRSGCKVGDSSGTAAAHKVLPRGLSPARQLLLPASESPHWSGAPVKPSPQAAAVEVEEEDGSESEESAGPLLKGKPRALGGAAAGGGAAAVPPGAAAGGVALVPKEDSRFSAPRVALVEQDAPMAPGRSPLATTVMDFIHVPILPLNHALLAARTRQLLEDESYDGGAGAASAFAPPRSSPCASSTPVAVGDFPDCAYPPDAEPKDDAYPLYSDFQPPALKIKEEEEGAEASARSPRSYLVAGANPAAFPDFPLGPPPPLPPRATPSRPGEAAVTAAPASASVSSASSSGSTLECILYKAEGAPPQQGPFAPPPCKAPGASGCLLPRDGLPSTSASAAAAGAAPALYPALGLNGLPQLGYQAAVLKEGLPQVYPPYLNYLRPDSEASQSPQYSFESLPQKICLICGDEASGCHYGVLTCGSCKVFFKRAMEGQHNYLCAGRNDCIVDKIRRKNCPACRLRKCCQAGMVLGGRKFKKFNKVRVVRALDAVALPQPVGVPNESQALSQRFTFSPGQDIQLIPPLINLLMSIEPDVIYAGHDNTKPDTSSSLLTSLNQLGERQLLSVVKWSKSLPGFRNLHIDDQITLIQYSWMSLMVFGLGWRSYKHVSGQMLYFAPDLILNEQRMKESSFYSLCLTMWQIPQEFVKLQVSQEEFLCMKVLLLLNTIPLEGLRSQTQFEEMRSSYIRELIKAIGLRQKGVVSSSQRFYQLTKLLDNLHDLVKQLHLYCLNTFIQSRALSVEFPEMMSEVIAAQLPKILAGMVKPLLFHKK
Description: Displacement of [3H]progesterone from human PRA

Glucocorticoid receptor = biological target: T3, Glucocorticoid receptor (Homo sapiens, UniProt P04150); experiment: Displacement of radiolabeled Dexamethasone from human GR
T3 sequence (P04150 whole entry): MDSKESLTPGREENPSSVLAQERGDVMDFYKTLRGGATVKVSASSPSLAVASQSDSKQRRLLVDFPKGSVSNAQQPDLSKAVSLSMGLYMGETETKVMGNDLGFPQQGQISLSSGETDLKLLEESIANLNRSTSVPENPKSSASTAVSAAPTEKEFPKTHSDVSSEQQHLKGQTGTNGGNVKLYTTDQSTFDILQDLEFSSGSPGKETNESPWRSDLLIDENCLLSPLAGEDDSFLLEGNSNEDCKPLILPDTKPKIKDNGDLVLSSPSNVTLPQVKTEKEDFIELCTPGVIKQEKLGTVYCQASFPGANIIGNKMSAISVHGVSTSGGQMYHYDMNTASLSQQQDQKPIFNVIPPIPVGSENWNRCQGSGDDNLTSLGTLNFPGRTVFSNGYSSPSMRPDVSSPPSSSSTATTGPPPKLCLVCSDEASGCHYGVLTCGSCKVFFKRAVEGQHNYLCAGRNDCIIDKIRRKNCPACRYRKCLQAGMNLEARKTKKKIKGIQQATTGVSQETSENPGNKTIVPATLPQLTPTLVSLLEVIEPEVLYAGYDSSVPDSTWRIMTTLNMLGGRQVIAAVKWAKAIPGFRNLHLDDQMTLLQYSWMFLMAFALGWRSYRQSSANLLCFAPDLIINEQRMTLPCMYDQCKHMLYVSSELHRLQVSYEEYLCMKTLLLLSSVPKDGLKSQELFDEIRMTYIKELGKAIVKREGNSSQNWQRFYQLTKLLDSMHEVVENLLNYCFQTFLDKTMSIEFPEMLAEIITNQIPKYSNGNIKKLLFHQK

Androgen receptor [2] = biological target: T4, Androgen receptor (Homo sapiens, UniProt P10275)
T4 sequence (P10275 whole entry): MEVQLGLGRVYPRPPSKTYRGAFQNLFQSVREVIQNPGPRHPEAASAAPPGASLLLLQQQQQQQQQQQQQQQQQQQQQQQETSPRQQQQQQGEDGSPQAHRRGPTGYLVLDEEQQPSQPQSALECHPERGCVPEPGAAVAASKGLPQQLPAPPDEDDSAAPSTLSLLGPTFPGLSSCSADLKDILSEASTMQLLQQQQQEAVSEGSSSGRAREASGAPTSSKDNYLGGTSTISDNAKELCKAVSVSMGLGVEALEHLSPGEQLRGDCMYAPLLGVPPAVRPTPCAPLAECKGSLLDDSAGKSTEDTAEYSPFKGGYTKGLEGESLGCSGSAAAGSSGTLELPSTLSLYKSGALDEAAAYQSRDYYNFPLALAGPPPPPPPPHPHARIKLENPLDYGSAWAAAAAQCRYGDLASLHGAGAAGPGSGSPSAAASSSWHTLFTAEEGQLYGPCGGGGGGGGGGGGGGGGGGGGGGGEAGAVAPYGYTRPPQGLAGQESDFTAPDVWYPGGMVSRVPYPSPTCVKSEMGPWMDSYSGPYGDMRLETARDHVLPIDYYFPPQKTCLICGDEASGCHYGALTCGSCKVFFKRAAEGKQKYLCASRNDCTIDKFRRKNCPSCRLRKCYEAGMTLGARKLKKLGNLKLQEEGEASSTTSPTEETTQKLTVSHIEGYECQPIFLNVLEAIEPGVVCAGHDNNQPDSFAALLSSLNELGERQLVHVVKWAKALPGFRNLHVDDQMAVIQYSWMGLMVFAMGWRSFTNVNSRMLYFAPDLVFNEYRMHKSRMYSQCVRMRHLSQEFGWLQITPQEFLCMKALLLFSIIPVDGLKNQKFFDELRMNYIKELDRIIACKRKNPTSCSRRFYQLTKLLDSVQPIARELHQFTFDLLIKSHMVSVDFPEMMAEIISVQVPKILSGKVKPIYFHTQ
Description: Antagonist activity at human androgen receptor expressed in CV1 cells by transcriptional activation assay

Androgen receptor [3] = biological target: T4, Androgen receptor; remark: listed apart in the source
Description: Agonist activity at human androgen receptor expressed in CV1 cells by transcriptional activation assay

Androgen receptor [4] = biological target: T4, Androgen receptor; experiment: biochemical
Description: Displacement of [3H]DHT from human AR expressed in MDA-MB-453 cells

Rattus norvegicus [5] = species: Rattus norvegicus; conditions: dose 100 mg/kg; route oral
Rattus norvegicus [6] = species: Rattus norvegicus; conditions: dose 100 mg/kg; route oral; remark: listed apart in the source

| Structure (SMILES) | IC50 (Androgen receptor [2]) [µM] | EC50 (Androgen receptor [3]) [nM] | Ki (Androgen receptor [4]) [nM] | also measured |
| --- | --- | --- | --- | --- |
| CCN1CCOc2cc3[nH]c(=O)cc(C(F)(F)F)c3cc21 | > 10 |  |  | Ki [1]: > 10 µM; Ki (Progesterone receptor): 5.2 µM; Ki (Glucocorticoid receptor): 8.1 µM |
| CC(C)[C@@H]1COc2cc3[nH]c(=O)cc(C(F)(F)F)c3cc2N1CC(F)(F)F |  | 5.9 | 51 |  |
| CN1CCOc2cc3[nH]c(=O)cc(C(F)(F)F)c3cc21 | > 10 |  |  |  |
| CCCN1CCOc2cc3[nH]c(=O)cc(C(F)(F)F)c3cc21 | > 10 |  |  |  |
| CC(C)CN1CCOc2cc3[nH]c(=O)cc(C(F)(F)F)c3cc21 |  | 3.2 | 17 |  |
| CC(C)C[C@@H]1COc2cc3[nH]c(=O)cc(C(F)(F)F)c3cc2N1CC(F)(F)F |  | 27 | 109 |  |
| O=c1cc(C(F)(F)F)c2cc3c(cc2[nH]1)OC[C@H]1CCCN31 |  | 26 | 27 |  |
| O=c1cc(C(F)(F)F)c2cc3c(cc2[nH]1)OCCN3CC(F)(F)F | > 10 |  |  | Ki [1]: > 10 µM; Ki (Progesterone receptor): 5.3 µM; Ki (Glucocorticoid receptor): 9.2 µM |
| O=c1cc(C(F)(F)F)c2cc3c(cc2[nH]1)OCCN3CC1CC1 |  |  |  | Ki [1]: > 10 µM; Ki (Progesterone receptor): 2 µM; Ki (Glucocorticoid receptor): 8.8 µM |
| CC(C)(C)N1CCOc2cc3[nH]c(=O)cc(C(F)(F)F)c3cc21 | > 10 | 7.8 | 48 |  |
| O=c1cc(C(F)(F)F)c2cc3c(cc2[nH]1)OCCN3Cc1ccccc1 | 0.224 | > 10000 | 206 |  |
| O=c1cc(C(F)(F)F)c2cc3c(cc2[nH]1)OCCN3 | 0.296 | > 10000 | > 1000 |  |
| CCC1COc2cc3[nH]c(=O)cc(C(F)(F)F)c3cc2N1CC (racemic) |  | 3.9 | 5.6 |  |
| O=c1cc(C(F)(F)F)c2cc3c(cc2[nH]1)OCC1CCCCN31 (racemic) |  | 14 | 16 | Ki (Progesterone receptor): > 10 µM; Ki (Glucocorticoid receptor): > 10 µM |
| CC1COc2cc3[nH]c(=O)cc(C(F)(F)F)c3cc2N1 (racemic) |  | 133 | 113 |  |
| CCN1c2cc3c(C(F)(F)F)cc(=O)[nH]c3cc2OCC1C (racemic) |  | 10 | 4.2 |  |
| CC1COc2cc3[nH]c(=O)cc(C(F)(F)F)c3cc2N1CC1CC1 (racemic) |  | 1.9 | 4 |  |
| CC1CN(CC(F)(F)F)c2cc3c(C(F)(F)F)cc(=O)[nH]c3cc2O1 (racemic) |  |  |  | Ki [1]: > 10 µM; Ki (Progesterone receptor): 7 µM; Ki (Glucocorticoid receptor): > 10 µM |
| CCC1CN(C)c2cc3c(C(F)(F)F)cc(=O)[nH]c3cc2O1 (racemic) | 0.067 | 52 | 58 |  |
| CC1CN(C)c2cc3c(C(F)(F)F)cc(=O)[nH]c3cc2O1 (racemic) |  | 47 | 33 |  |
| CCC1CN(CC(F)(F)F)c2cc3c(C(F)(F)F)cc(=O)[nH]c3cc2O1 (racemic) | > 10 | 15 | 30 |  |
| CCC1CN(CC)c2cc3c(C(F)(F)F)cc(=O)[nH]c3cc2O1 (racemic) | > 10 | 31 | 34 |  |
| CCC1COc2cc3[nH]c(=O)cc(C(F)(F)F)c3cc2N1CC1CC1 (racemic) |  | 2.3 | 23 | Ki (Progesterone receptor): 5.4 µM; Ki (Glucocorticoid receptor): > 10 µM |
| CC1CN(CC(F)(F)F)c2cc3c(C(F)(F)F)cc(=O)[nH]c3cc2O1 (stereo in doubt; (-)-10h) | > 10 |  |  |  |
| C[C@]1(O)CC[C@H]2[C@@H]3CCC4=CC(=O)CC[C@]4(C)[C@@]3(F)[C@@H](O)C[C@@]21C [FLUOXYMESTERONE] |  |  |  | Efficacy (Rattus norvegicus [5]): 79%; Efficacy (Rattus norvegicus [6]): 129% |
